Test results reported in US20240247069A1, “FGFR3 BINDING MOLECULES AND METHODS OF USE THEREOF” (Regeneron Pharmaceuticals, Inc., priority 2023, published 2024).

Assays:
Format in all cases: cell-based
Conditions in all cases: FGF1/heparin, 72 hours
[1] = system: BaF3 cells expressing FGFR3 S249C+V557L; assay: BaF3 cell proliferation, FGFR3 S249C+V557L
Description: (§1) cDNA expressing FGFR3 mutants (S249C, S248C, Y375C, V555M, V555L, S249C+V555M, or S249C+V555L) were synthesized and cloned into pLVX Lenti-viral vector (Thermo Fisher). Viral particles were generated by lipofectamine transfection of LentiX 293T cells using Lenti-X packaging single shots following manufacturer's protocol (Clontech/Takara) and concentrated using Lenti-X concentrator and titer determined using Lenti-X p24 rapid titer kit (Clontech/Takara). BaF3 cells were transduced with virus at ˜0.3 MOI.
(§2) For cell proliferation assays, engineered BaF3/hFGFR3 cells grown in complete medium were washed and plated in IL-3-free culture media±5 μg/ml heparin and 1 nM human FGF1. Cells were plated out at 1×10^5 cells/well into 96-well plates, followed by the addition of 1:3 serially diluted antibodies as indicated in figures. After addition of antibodies, cells were incubated at 37° C. for 72 h followed by the addition of CellTiter-Glo™ (Promega) reagent. The luminescent signal was detected by Envision plate reader (PerkinElmer). Data was analyzed using Prism software (GraphPad). […]

[2] = system: BaF3 cells expressing FGFR3 S249C+V557M; assay: BaF3 cell proliferation, FGFR3 S249C+V557M
Description: as §1, §2

[3] = system: BaF3 cells expressing FGFR3 V557L; assay: BaF3 cell proliferation, FGFR3 V557L
Description: as §1, §2

[4] = system: BaF3 cells expressing FGFR3 V557M; assay: BaF3 cell proliferation, FGFR3 V557M
Description: as §1, §2

AZD4547 [reference compound]
ineffective: effect on growth of BaF3 cells expressing FGFR3 S249C+V557L [1] | effect on growth of BaF3 cells expressing FGFR3 S249C+V557M [2] | effect on growth of BaF3 cells expressing FGFR3 V557L [3] | effect on growth of BaF3 cells expressing FGFR3 V557M [4]
